# Assays:
# [1] = system: pancreatic cancer (Panc-1) cell line; experiment: Antiproliferative assay, Panc-1; format: cell-based; settings: Homo sapiens, read-out: Antiproliferative Activity IC50 ± SEM, Panc-1
# Description: (§1) 4.2.1.2. Assay for antiproliferative effect
# (§2) To explore the antiproliferative potential of compounds propidium iodide fluorescence assay was performed using different cell lines such as Panc-1 (pancreas cancer cell line), MCF-7 (breast cancer cell line), HT-29 (colon cancer cell line) and A-549 (epithelial cancer cell line), respectively.
# (§3) To calculate the total nuclear DNA, a fluorescent dye (propidium iodide, PI) is used which can attach to the DNA, thus offering a quick and precise technique. PI cannot pass through the cell membrane and its signal intensity can be considered as directly proportional to quantity of cellular
# (§4) DNA. Cells whose cell membranes are damaged or have changed permeability are counted as dead ones. The assay was performed by seeding the cells of different cell lines at a density of 3000-7500 cells/well (in200μl medium) in culture plates followed by incubation for 24h at 37 °C in humidified 5%CO2/95% air atmospheric conditions. The medium was removed; the compounds were added to the plates at 10 μM concentrations (in 0.1% DMSO) in triplicates, followed by incubation for 48h. DMSO (0.1%) was used as control. After incubation, medium was removed followed by the addition of PI (25 μl, 50μg/mL in water/medium) to each well of the plates. At - 80 °C, the plates were allowed to freeze for 24 h, followed by thawing at 25 °C. A fluorometer (Polar-Star BMG Tech) was used to record the readings at excitation and emission wavelengths of 530 and 620 nm for each well. The percentage cytotoxicity of compounds was calculated using […]
# (§5) Where ATC= Absorbance of treated cells and AC= Absorbance of control. Erlotinib was used as positive control in the assay.
# [2] = system: colon cancer (HT-29) cell line; experiment: Antiproliferative assay, HT-29; format: cell-based; settings: Homo sapiens, read-out: Antiproliferative Activity IC50 ± SEM, HT-29
# Description: as §1, §2, §3, §4, §5
# [3] = system: caspase-3; experiment: Caspase 3 assay in A-549 cells; format: cell-based, human; settings: for Caspase-3 Conc: untreated control 66 pg/mL
# Description: Caspases play a crucial function in the induction and completion of apoptosis. Caspase-3 is an essential caspase that cleaves different proteins in cells, resulting in apoptosis. […]
# 4.2.5. Caspase-3 activation assay
# Allow all reagents to reach room temperature before use. Gently mix all liquid reagents prior to use. Determine the number of 8-well strips needed for the assay. Insert these in the frame(s) for current use. Add 100 μl of the Standard Diluent Buffer to the zero standard wells. Well(s) reserved for chromogen blank should be left empty. Add 100 μl of standards and controls or diluted samples to the appropriate microtiter wells. The sample dilution chosen should be optimized for each experimental system. Tap gently on side of plate to mix. Cover wells with plate cover and incubate for 2 hours at room temperature. Thoroughly aspirate or decant solution from wells and discard the liquid, Wash wells 4 times. Pipette 100 μl of Caspase-3 (Active) Detection Antibody solution into each well except the chromogen blank(s). Tap gently on the side of the plate to mix. Cover plate with plate cover and incubate for 1 hour at room temperature. Thoroughly aspirate or decant solution from wells and discard the liquid, Wash wells 4 times. Add 100 μl Anti-Rabbit IgG HRP Working Solution to each well except the chromogen blank(s). Prepare the working dilution as described in Preparing IgG HRP. Cover wells with the plate cover and incubate for 30 minutes at room temperature. Thoroughly aspirate or decant solution from wells and discard the liquid. Wash wells 4 times. Add 100 μl of Stabilized Chromoge n to each well. The liquid in the wells will begin to turn blue. Incubate for 30 minutes at room temperature and in the dark. The incubation time for chromogen substrate is often determined by the microtiter plate reader used. Many plate readers have the capacity to record a maximum optical density (O.D.) of 2.0. The O.D. values should be monitored, and the substrate reaction stopped before the O.D. of the positive wells exceeds the limits of the instrument. The O.D. values at 450 nm can only be read after the Stop Solution has been added to each well. If using a reader that records only to 2.0 O.D., stopping the assay after […]
# Add 100 μl of Stop Solution to each well. Tap side of plate gently to mix. The solution in the wells should change from blue to yellow. Read the absorbance of each well at 450 nm having blanked the plate reader against a chromogen blank composed of 100 μl each of Stabilized Chromogen and Stop Solution. Read the plate within 2 hours after adding the Stop Solution. Use a curve fitting software to generate the standard curve. A four-parameter algorithm provides the best standard curve fit. Read the concentrations for unknown samples and controls from the standard curve. Multiply value(s) obtained for sample(s) by the appropriate dilution factor to correct for the dilution in step 3. Samples producing signals greater than that of the highest standard should be diluted in Standard Diluent Buffer and reanalyzed.
# [4] = system: Bax; experiment: Bax level assay in A-549 cells; format: cell-based, human; settings: for Bax Conc: control 9; for Bax Fold Change: vs control
# Description: caspase8, and lysed with Cell Extraction Buffer. This lysate was diluted in Standard Diluent Buffer over the range of the assay and measured for human active caspase-8 content. […]
# 4.2.7. Bax activation assay
# Bring all reagents, except the human Bax-α Standard, to room temperature for at least 30 minutes prior to opening. The human Bax-α Standard solution should not be left at room temperature for more than 10 minutes. All standards, controls and samples should be run in duplicate. Refer to the Assay Layout Sheet to determine the number of wells to be used and put any remaining wells with the desiccant back into the pouch and seal the ziploc. Store unused wells at 4 °C. Pipet 100 μL of Assay Buffer into the S0 (0 pg/mL standard) wells. Pipet 100 μL of Standards #1 through #6 into the appropriate wells. Pipet 100 μL of the Samples into the appropriate wells. Tap the plate gently to mix the contents. Seal the plate and incubate at room temperature on a plate shaker for 1 hour at ~500 rpm. Empty the contents of the wells and wash by adding 400 μL of wash solution to every well. Repeat the wash 4 more times for a total of 5 washes. After the final wash, empty or aspirate the wells and firmly tap the plate on a lint free paper towel to remove any remaining wash buffer.
# Pipet 100 μL of yellow Antibody into each well, except the Blank. Seal the plate and incubate at room temperature on a plate shaker for 1 hour at ~500 rpm. Empty the contents of the wells and wash by adding 400 μL of wash solution to every well. Repeat the wash 4 more times for a total of 5 washes. After the final wash, empty or aspirate the wells and firmly tap the plate on a lint free paper towel to remove any remaining wash buffer. Add 100 μL of blue Conjugate to each well, except the Blank. Seal the plate and incubate at room temperature on a plate shaker for 30 minutes […]
# Pipet 100 μL of Substrate Solution into each well. Incubate for 30 minutes at room temperature on a plate shaker at ~500 rpm. Pipet 100 μL Stop Sol ution to each well. Blank the plate reader against the Blank wells, read the optical density at 450 nm. Calculate the average net Optical Density (OD) bound for each standard and sample by subtracting the average Blank OD from the average OD for each standard and sample. Using linear graph paper, plot the Average Net OD for each standard versus Bax concentration in each standard. Approximate a straight line through the points.
# The concentration of Bax in the unknowns can be determined by interpolation. […]
# [5] = molecular target: BRAF^V600E (Mus musculus, UniProt P28028, V585E); experiment: BRAF^V600E inhibitory assay
# Sequence of BRAF^V600E (P28028 whole entry V585E): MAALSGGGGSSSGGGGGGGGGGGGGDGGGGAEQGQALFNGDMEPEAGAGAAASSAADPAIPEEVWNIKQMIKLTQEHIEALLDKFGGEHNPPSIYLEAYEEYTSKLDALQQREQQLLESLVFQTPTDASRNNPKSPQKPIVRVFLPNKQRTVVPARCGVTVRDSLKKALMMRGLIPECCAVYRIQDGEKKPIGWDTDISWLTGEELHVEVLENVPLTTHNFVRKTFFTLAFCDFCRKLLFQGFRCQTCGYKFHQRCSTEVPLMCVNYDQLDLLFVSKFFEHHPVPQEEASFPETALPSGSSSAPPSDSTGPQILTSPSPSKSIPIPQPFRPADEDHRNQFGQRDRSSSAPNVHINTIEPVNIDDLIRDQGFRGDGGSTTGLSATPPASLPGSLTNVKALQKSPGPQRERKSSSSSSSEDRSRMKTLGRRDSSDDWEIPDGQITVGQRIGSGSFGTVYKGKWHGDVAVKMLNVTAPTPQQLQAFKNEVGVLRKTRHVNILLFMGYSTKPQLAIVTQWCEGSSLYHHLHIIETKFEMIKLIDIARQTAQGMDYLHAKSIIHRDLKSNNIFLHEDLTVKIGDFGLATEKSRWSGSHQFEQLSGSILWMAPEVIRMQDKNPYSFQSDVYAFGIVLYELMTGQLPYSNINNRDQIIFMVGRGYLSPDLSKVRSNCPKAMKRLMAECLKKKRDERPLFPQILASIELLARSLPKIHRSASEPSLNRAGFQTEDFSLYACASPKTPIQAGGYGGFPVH
# Description: BRAFV600E inhibitory assay
# V600E mutant BRAF kinase assay was performed to investigate the activity of tested compounds against BRAF. Mouse full-length GST-tagged BRAFV600E (7.5 ng, Invitrogen, PV3849) was pre-incubated with drug (1 µL) and assay dilution buffer (4 µL) for 60 min at 25 °C. In assay dilution buffer, a solution (5 µL) containing MgCl2 (30 mM), ATP (200 µM), recombinant human full length (200 ng) and N-terminal His-tagged MEK1 (Invitrogen) was added to start the assay, subsequent to incubation for 25 min at 25 °C. The assay was stopped using 5X protein denaturing buffer (LDS) solution (5 µL). To further denature the protein, heat (70° C) was applied for 5 min.
# 10 µL of each reaction was loaded into the precast plates and electrophoresis was allowed to proceed. After completion of electrophoresis, the front part of the precast gel plate (holding hot ATP) was cut and afterwards cast-off. The dried gel was developed using a phosphor screen.
Structure (SMILES),IC50 [1] [nM],IC50 [2] [nM],Caspase-3 Conc [3] [pg/mL],Bax Conc [4] [pg/mL],Bax Fold Change [4],IC50 [5] [nM],Caspase-3 Fold Change ([3]; vs untreated control)
"O=C(NCC(c1ccccc1)c1c(-c2ccccc2)[nH]c2ccccc12)c1cc2cc(Cl)ccc2[nH]1 (stereo not shown) [Compound Va, 5-Chloro-N-(2-phenyl-2-(2-phenyl-1H-indol-3-yl)ethyl)-1H-indole-2-carboxamide]",26 ± 2,26 ± 2,726 ± 6,410,45,77 ± 6,–
"CO/C=C/c1c(C(=O)NCC(c2ccccc2)c2c(-c3ccccc3)[nH]c3ccccc23)[nH]c2ccc(Cl)cc12 (stereo not shown) [Compound Vg, (E)-5-Chloro-3-(2-methoxyvinyl)-N-(2-phenyl-2-(2-phenyl-1H-indol-3-yl)ethyl)-1H-indole-2-carboxamide]",30 ± 2,30 ± 2,528 ± 5,320,35,83 ± 6,~8

# — article PMC10385579, “Design, Synthesis, and Biological Evaluation of Indole-2-carboxamides as Potential Multi-Target Antiproliferative Agents” (Pharmaceuticals, 2023)
